Data published in US12365710B2, “HMGB1 protein derivatives for the removal of biofilms” (RESEARCH INSTITUTE AT NATIONWIDE CHILDREN'S HOSPITAL, priority 2018, dated 2025).

B1: B-linker Box: HMGB1 B Box with N- and C-terminal linker (80-179; 80 to 176 in b258), 97 amino acid (protein, UniProt P09429 80-179, looked up, fragment)
chain: PPKGETKKKFKDPNAPKRPPSAFFLFCSEYRPKIKGEHPGLSIGDVAKKLGEMWNNTAADDKQPYEKKAAKLKEKYEKDIAAYRAKGKPDAAKKGVVKAE

Experiments:
S. aureus biofilm = assay: in vitro disruption of established biofilms, CLSM and COMSTAT; type: cell-based; conditions: 800 nM rHMGB1 used (FIG. 5A)
Method: (§1) FIGS. 5A-5E: Anti-biofilm effect of HMGB1 variants on high priority bacterial pathogens. Indicated HMGB1 variants or antibodies against DNABII proteins (α-1HFEc 1gG, 1 μM) were added at 24 h to the respective preformed bacterial biofilms, in vitro. After 16 h of Incubation, biofilms were stained with LIVE/DEAD®, then visualized via confocal laser scanning microscopy. Images were analyzed by COMSTAT to calculate average thickness and comparison to control was plotted. (FIG. 5A) Full-length HMGB1 isoforms (200 nM unless otherwise indicated) added to UPEC, B. cenocepacia, NTHI, or ESKAPE pathogens. 800 nM rHMGB1 and 200 nM mHMGB1 were added for S. aureus (ESKAPE). […] Statistical significance compared to control was assessed with unpaired t-tests, *P<0.05. […] Images were analyzed by COMSTAT to calculate average thickness and total biomass. […]
(§2) HMGB1 disrupts pathogenic biofilms: To test the effect of HMGB1 on bacterial biofilms (FIG. 5), Applicant cloned (IMPACT®, NEB Ipswich, MA), expressed (in E. coli), and purified (heparin sepharose chromatography to >95% purity) tagless human recombinant HMGB1 (rHMGB1) and an engineered C45 S variant (mHMGB1) that mimics the reduced form of HMGB1. rHMGB1 readily forms an intramolecular disulfide bond between C23 and C45 that contributes to pro-inflammatory activity whereas mHMGB1 cannot. […]

E. faecium biofilm = assay: as above; type: cell-based; conditions: 800 nM rHMGB1, incubated 1 h (FIG. 5A)
Method: as §1, §2

[1] = system: established biofilms formed by high priority human pathogens; assay: in vitro disruption of established biofilms of high priority pathogens (panel); type: cell-based, UPEC, B. cenocepacia, NTHI, ESKAPE pathogens; conditions: single dose 200 nM, biofilms formed 24 h, 16 h exposure
Method: as §1, §2

UPEC biofilm = assay: in vitro disruption of established biofilms, CLSM and COMSTAT; type: cell-based, Uropathogenic E. coli; conditions: for disruption of established UPEC biofilms: added at 24 h, 16 h exposure, 200 nM unless stated
Method: FIGS. 5A-5E: Anti-biofilm effect of HMGB1 variants on high priority bacterial pathogens. Indicated HMGB1 variants or antibodies against DNABII proteins (α-1HFEc 1gG, 1 μM) were added at 24 h to the respective preformed bacterial biofilms, in vitro. After 16 h of Incubation, biofilms were stained with LIVE/DEAD®, then visualized via confocal laser scanning microscopy. Images were analyzed by COMSTAT to calculate average thickness and comparison to control was plotted. (FIG. 5A) Full-length HMGB1 isoforms (200 nM unless otherwise indicated) added to UPEC, B. cenocepacia, NTHI, or ESKAPE pathogens. 800 nM rHMGB1 and 200 nM mHMGB1 were added for S. aureus (ESKAPE). 800 nM rHMGB1, 800 nM mHMGB1, or 3.3 μM of α-1HFEc 1gG were added for E. faecium (ESKAPE) and were incubated for 1 h as opposed to 16 h to avoid potential degradation by E. faecium proteases. (FIG. 5B) Representative images of UPEC biofilms incubated with increasing concentrations of rHMGB1. (FIG. 5C) Individual domains of HMGB1 (200 nM) were tested for anti-biofilm activity as above (dotted line indicates control values). Bars represent the SEM. Statistical significance compared to control was assessed with unpaired t-tests, *P<0.05. […] (FIGS. 5D-5E) HMGB1 and variants disrupt preformed Klebsiella pneumoniae biofilms. rHMGB1, HMGB1 C45S (mHMGB1), bovine HMGB1 (bHMGB1), B box, B Box C106S (mB Box), A Box, and A+B Box were added (200 nM) at 24 h to preformed K. pneumoniae biofilms. After 16 h of incubation, biofilms were stained with LIVE/DEAD®, then visualized via confocal laser scanning microscopy. Images were analyzed by COMSTAT to calculate average thickness and total biomass. Error bars represent the SEM. ***P<0.0001; ns=not significant.
HMGB1 disrupts pathogenic biofilms: To test the effect of HMGB1 on bacterial biofilms (FIG. 5), Applicant cloned (IMPACT®, NEB Ipswich, MA), expressed (in E. coli), and purified (heparin sepharose chromatography to >95% purity) tagless human recombinant HMGB1 (rHMGB1) and an engineered C45 S variant (mHMGB1) that mimics the reduced form of HMGB1. rHMGB1 readily forms an intramolecular disulfide bond between C23 and C45 that contributes to pro-inflammatory activity whereas mHMGB1 cannot. These HMGB1 isoforms were evaluated for ability to disrupt established biofilms (formed for 24 h prior to addition). After a 16 h exposure to a single dose of rHMGB1 (200 nM; ˜25-fold greater than typical sepsis serum concentration, but not able to directly induce sepsis), biofilms formed by a wide variety of high priority species were stained with LIVE/DEAD®, analyzed using confocal laser scanning microscopy (CLSM) and COMSTAT analysis and compared to control biofilms. […] Preliminary analysis of PTMs by LC-MS/MS analysis (MS Bioworks, LLC Ann Arbor, MI) indicated minimal modification of both rHMGB1 and nHMGB1 (<20% of the observed peptides had any given PTM, FIG. 1C). […] Thus, while there are intrinsic differences in sensitivity among pathogens, the biofilms formed by all of the tested high priority pathogens were susceptible to a single dose of these non-antimicrobial compounds.
HMGB1 domain structure and anti-biofilm activity: Applicant then produced recombinant HMGB1 truncation variants, of 1) the A Box, a self-contained DNA-binding domain (residues 1-89); 2) an A-B Boxes construct (lacks the C tail; residues 1-185); and 3) the B Box (residues 80 to 176, FIGS. 1A and 1C). […] Since only the B Box can modulate DNA bending, without being bound by theory, it was hypothesized that HMGB1 disrupts biofilms at least in part via DNA-binding/bending. As the B Box is reported to contain pro-inflammatory activity, mediated primarily through interactions with TLR4-MD2 that are dependent on residue C106, Applicant created a modified B Box variant (mB Box) with a C106S mutation (FIGS. 1A and 1C).

B. cenocepacia biofilm = type: cell-based, Burkholderia cenocepacia; conditions: 200 nM added at 24 h, 16 h exposure
Method: Indicated HMGB1 variants or antibodies against DNABII proteins (α-1HFEc 1gG, 1 μM) were added at 24 h to the respective preformed bacterial biofilms, in vitro. After 16 h of Incubation, biofilms were stained with LIVE/DEAD®, then visualized via confocal laser scanning microscopy. Images were analyzed by COMSTAT to calculate average thickness and comparison to control was plotted. (FIG. 5A) Full-length HMGB1 isoforms (200 nM unless otherwise indicated) added to UPEC, B. cenocepacia, NTHI, or ESKAPE pathogens. 800 nM rHMGB1 and 200 nM mHMGB1 were added for S. aureus (ESKAPE). 800 nM rHMGB1, 800 nM mHMGB1, or 3.3 μM of α-1HFEc 1gG were added for E. faecium (ESKAPE) and were incubated for 1 h as opposed to 16 h to avoid potential degradation by E. faecium proteases. […] (FIG. 5C) Individual domains of HMGB1 (200 nM) were tested for anti-biofilm activity as above (dotted line indicates control values). Bars represent the SEM. Statistical significance compared to control was assessed with unpaired t-tests, *P<0.05. […] After 16 h of incubation, biofilms were stained with LIVE/DEAD®, then visualized via confocal laser scanning microscopy. Images were analyzed by COMSTAT to calculate average thickness and total biomass. Error bars represent the SEM. ***P<0.0001; ns=not significant.

Molecule	concentration needed to disrupt S. aureus biofilm (S. aureus biofilm)	concentration needed to disrupt E. faecium biofilm (E. faecium biofilm)	disruption of established biofilms (average thickness and biomass) of high priority species [1]	disruption of established biofilms (average thickness and biomass) of high priority species ([1]; listed as Full length recombinant HMGB1)	disruption of established UPEC biofilms (UPEC biofilm)	average thickness of UPEC biofilm (UPEC biofilm; progressively higher concentrations of rHMGB1, up to 400 nM, monolayer) [μm]	disruption of established Bc biofilms (B. cenocepacia biofilm)
rHMGB1: tagless human recombinant full length HMGB1 (1-215) expressed in E. coli	required a higher (albeit non-bactericidal) concentration	required a higher (albeit non-bactericidal) concentration	significant reduction	significantly disrupt	disrupted a UPEC biofilm in a dose-dependent manner	~1	–
B1	–	–	–	–	retained full anti-biofilm activity	–	retained full anti-biofilm activity
